# Measurements taken from patent US20200339625A1, “NOVEL RADIOMETAL-BINDING COMPOUNDS FOR DIAGNOSIS OR TREATMENT OF PROSTATE SPECIFIC MEMBRANE ANTIGEN-EXPRESSING CANCER” (PROVINCIAL HEALTH SERVICES AUTHORITY, priority 2017, published 2020).
# What was measured:
# [1] = test system: mice bearing LNCaP tumor xenografts; experiment: PET/CT imaging of 68Ga-labeled compounds; format: in vivo; details: for excretion pathway / tumor uptake (qualitative comparison) / change of tumor uptake from 1 h to 3 h post-injection: PET/CT images; for tumor uptake (qualitative comparison): compounds of FIG. 13
# Experimental: 2.17 PET/CT Imaging and Biodistribution
# (§1) Imaging and biodistribution experiments were performed using NODSCID 1L2RyKO male mice. Mice were anesthetized by inhalation with 2% isoflurane in oxygen, and implanted subcutaneously with 1×10^7 LNCaP cells behind left shoulder. Mice were imaged or used in biodistribution studies when the tumor grew up to reach 5-8 mm in diameter during 5-6 weeks.
# PET imaging experiments were conducted using Siemens Inveon micro PET/CT scanner. Each tumor bearing mouse was injected 6-8 MBq of 68Ga-labeled tracer through the tail vein under anesthesia (2% isoflurane in oxygen). The mice were allowed to recover and roam freely in their cage. After 50 min, the mice were sedated again with 2% isoflurane in oxygen inhalation and positioned in the scanner. A 10-min CT scan was conducted first for localization and attenuation correction after segmentation for reconstructing the PET images. Then, a 10-min static PET imaging was performed to determined uptake in tumor and other organs. The mice were kept warm by a heating pad during acquisition. For imaging studies acquired at 3 h post-injection (p.i.), the mice were placed in the micro PET/CT scanner at 170 min p.i. Then, the CT acquisitions were conducted as described above, a 15-min static PET imaging was performed to determined uptake in tumor and other organs.
# [2] = test system: mice bearing PSMA-expressing LNCAP cancer xenografts; experiment: Biodistribution of 68Ga-labeled compounds; format: in vivo
# Experimental: as §1
# For biodistribution studies, the mice were injected with the radiotracer as described above. At predetermined time points (1 or 3 h), the mice was anesthetized with 2% isoflurane inhalation, and euthanized by CO2 inhalation. Blood was withdrawn immediately from the heart, and the organs/tissues of interest were collected. The collected organs/tissues were weighed and counted using an automatic gamma counter. The uptake in each organ/tissue was normalized to the injected dose using a standard curve, and expressed as the percentage of the injected dose per gram of tissue (% ID/g).
compound,measurement,setting,value
O=C([O-])CN1CCN(CC(=O)[O-])CCN(CC(=O)NCC2CCC(C(=O)NC(Cc3ccc4ccc5cccc6ccc3c4c56)C(=O)NCCCCC(NC(=O)NC(CCC(=O)O)C(=O)O)C(=O)O)CC2)CCN(CC(=O)[O-])CC1.[68Ga+3] (stereo not drawn) [^68Ga-HTK03029],excretion pathway,[1],excreted mainly via the renal pathway
same,tumor uptake (qualitative comparison),[1],comparable
same,Adrenal glands uptake,[2]; 1 h post-injection,4.91 ± 1.57 % ID/g
same,Blood uptake,[2]; 1 h post-injection,3.93 ± 0.91 % ID/g
same,Bone uptake,[2]; 1 h post-injection,0.92 ± 0.14 % ID/g
same,Brain uptake,[2]; 1 h post-injection,0.09 ± 0.02 % ID/g
same,Fat uptake,[2]; 1 h post-injection,1.57 ± 0.42 % ID/g
same,Heart uptake,[2]; 1 h post-injection,1.25 ± 0.27 % ID/g
same,Intestine uptake,[2]; 1 h post-injection,0.77 ± 0.11 % ID/g
same,Kidneys uptake,[2]; 1 h post-injection,198 ± 49.3 % ID/g
same,Lacrimal uptake,[2]; 1 h post-injection,1.06 ± 0.49 % ID/g
same,Liver uptake,[2]; 1 h post-injection,1.32 ± 0.63 % ID/g
same,Lungs uptake,[2]; 1 h post-injection,3.59 ± 0.69 % ID/g
same,Muscle uptake,[2]; 1 h post-injection,0.63 ± 0.10 % ID/g
same,Pancreas uptake,[2]; 1 h post-injection,0.94 ± 0.18 % ID/g
same,Salivary uptake,[2]; 1 h post-injection,3.27 ± 1.02 % ID/g
same,Seminal uptake,[2]; 1 h post-injection,6.74 ± 10.7 % ID/g
same,Spleen uptake,[2]; 1 h post-injection,7.08 ± 5.08 % ID/g
same,Stomach uptake,[2]; 1 h post-injection,0.31 ± 0.08 % ID/g
same,Tail uptake,[2]; 1 h post-injection,2.18 ± 0.65 % ID/g
same,Testes uptake,[2]; 1 h post-injection,1.02 ± 0.13 % ID/g
same,Thyroid uptake,[2]; 1 h post-injection,1.57 ± 0.32 % ID/g
same,Tumor uptake,[2]; 1 h post-injection,13.9 ± 6.58 % ID/g
same,Tumor:Blood ratio,[2]; 1 h post-injection,3.39 ± 1.01
same,Tumor:Muscle ratio,[2]; 1 h post-injection,21.3 ± 7.50
same,Tumor:kidney ratio,[2]; 1 h post-injection,0.07 ± 0.02
same,Urine uptake,[2]; 1 h post-injection,175 ± 178 % ID/g
O=C([O-])CN1CCN(CC(=O)[O-])CCN(CC(=O)NCC2CCC(C(=O)NC(Cc3c4ccccc4cc4ccccc34)C(=O)NCCCCC(NC(=O)NC(CCC(=O)O)C(=O)O)C(=O)O)CC2)CCN(CC(=O)[O-])CC1.[68Ga+3] (stereo not drawn) [^68Ga-HTK03041],change of tumor uptake from 1 h to 3 h post-injection,[1],increases from 1 h to 3 h post-injection
same,excretion pathway,[1],excreted mainly via the renal pathway
same,tumor uptake (qualitative comparison),[1],highest tumor uptake
same,Adrenal glands uptake,[2]; 1 h post-injection,8.90 ± 2.56 % ID/g
same,Blood uptake,[2]; 1 h post-injection,1.43 ± 0.30 % ID/g
same,Bone uptake,[2]; 1 h post-injection,1.29 ± 0.45 % ID/g
same,Brain uptake,[2]; 1 h post-injection,0.10 ± 0.05 % ID/g
same,Fat uptake,[2]; 1 h post-injection,2.06 ± 0.59 % ID/g
same,Heart uptake,[2]; 1 h post-injection,1.82 ± 0.21 % ID/g
same,Intestine uptake,[2]; 1 h post-injection,1.14 ± 0.18 % ID/g
same,Kidneys uptake,[2]; 1 h post-injection,170 ± 26.4 % ID/g
same,Lacrimal uptake,[2]; 1 h post-injection,2.44 ± 1.79 % ID/g
same,Liver uptake,[2]; 1 h post-injection,1.38 ± 0.25 % ID/g
same,Lungs uptake,[2]; 1 h post-injection,4.32 ± 0.62 % ID/g
same,Muscle uptake,[2]; 1 h post-injection,0.75 ± 0.09 % ID/g
same,Pancreas uptake,[2]; 1 h post-injection,1.47 ± 0.16 % ID/g
same,Salivary uptake,[2]; 1 h post-injection,4.99 ± 0.88 % ID/g
same,Seminal uptake,[2]; 1 h post-injection,1.03 ± 0.27 % ID/g
same,Spleen uptake,[2]; 1 h post-injection,8.95 ± 3.22 % ID/g
same,Stomach uptake,[2]; 1 h post-injection,0.41 ± 0.11 % ID/g
same,Tail uptake,[2]; 1 h post-injection,1.36 ± 0.45 % ID/g
same,Testes uptake,[2]; 1 h post-injection,1.34 ± 0.22 % ID/g
same,Thyroid uptake,[2]; 1 h post-injection,2.48 ± 0.44 % ID/g
same,Tumor uptake,[2]; 1 h post-injection,23.1 ± 6.11 % ID/g
same,Tumor:Blood ratio,[2]; 1 h post-injection,17.3 ± 7.24
same,Tumor:Muscle ratio,[2]; 1 h post-injection,31.6 ± 12.1
same,Tumor:kidney ratio,[2]; 1 h post-injection,0.14 ± 0.04
same,Urine uptake,[2]; 1 h post-injection,173 ± 93.01 % ID/g
same,Adrenal glands uptake,[2]; 3 h post-injection,4.04 ± 1.20 % ID/g
same,Blood uptake,[2]; 3 h post-injection,0.83 ± 0.27 % ID/g
same,Bone uptake,[2]; 3 h post-injection,0.98 ± 0.40 % ID/g
same,Brain uptake,[2]; 3 h post-injection,0.06 ± 0.02 % ID/g
same,Fat uptake,[2]; 3 h post-injection,1.06 ± 0.20 % ID/g
same,Heart uptake,[2]; 3 h post-injection,0.93 ± 0.17 % ID/g
same,Intestine uptake,[2]; 3 h post-injection,0.67 ± 0.09 % ID/g
same,Kidneys uptake,[2]; 3 h post-injection,121 ± 37.6 % ID/g
same,Lacrimal uptake,[2]; 3 h post-injection,2.82 ± 3.84 % ID/g
same,Liver uptake,[2]; 3 h post-injection,0.82 ± 0.15 % ID/g
same,Lungs uptake,[2]; 3 h post-injection,2.14 ± 0.39 % ID/g
same,Muscle uptake,[2]; 3 h post-injection,0.40 ± 0.06 % ID/g
same,Pancreas uptake,[2]; 3 h post-injection,0.71 ± 0.12 % ID/g
same,Salivary uptake,[2]; 3 h post-injection,2.11 ± 0.57 % ID/g
same,Seminal uptake,[2]; 3 h post-injection,4.56 ± 9.00 % ID/g
same,Spleen uptake,[2]; 3 h post-injection,4.19 ± 1.58 % ID/g
same,Stomach uptake,[2]; 3 h post-injection,0.26 ± 0.06 % ID/g
same,Tail uptake,[2]; 3 h post-injection,0.86 ± 0.73 % ID/g
same,Testes uptake,[2]; 3 h post-injection,0.89 ± 0.12 % ID/g
same,Thyroid uptake,[2]; 3 h post-injection,1.19 ± 0.23 % ID/g
same,Tumor uptake,[2]; 3 h post-injection,28.2 ± 9.17 % ID/g
same,Tumor:Blood ratio,[2]; 3 h post-injection,36.6 ± 15.4
same,Tumor:Muscle ratio,[2]; 3 h post-injection,73.8 ± 30.9
same,Tumor:kidney ratio,[2]; 3 h post-injection,0.26 ± 0.13
same,Urine uptake,[2]; 3 h post-injection,171 ± 93.3 % ID/g
O=C([O-])CN1CCN(CC(=O)[O-])CCN(CC(=O)NCCCC[C@H](NC(=O)CNC(=O)CCCc2ccc(Cl)cc2)C(=O)NC[C@H]2CC[C@H](C(=O)N[C@@H](Cc3ccc4ccccc4c3)C(=O)NCCCC[C@H](NC(=O)N[C@@H](CCC(=O)O)C(=O)O)C(=O)O)CC2)CCN(CC(=O)[O-])CC1.[68Ga+3] [^68Ga-HTK03055],change of tumor uptake from 1 h to 3 h post-injection,[1],uptake in tumors increases over time
same,blood retention (qualitative),"[1]; PET/CT images at 1 h and 3 h post-injection, comparison within the figure",some extent of blood retention
same,Adrenal glands uptake,[2]; 1 h post-injection,5.51 ± 1.56 % ID/g
same,Blood uptake,[2]; 1 h post-injection,22.1 ± 2.04 % ID/g
same,Bone uptake,[2]; 1 h post-injection,1.59 ± 0.44 % ID/g
same,Brain uptake,[2]; 1 h post-injection,0.29 ± 0.04 % ID/g
same,Fat uptake,[2]; 1 h post-injection,2.20 ± 0.41 % ID/g
same,Heart uptake,[2]; 1 h post-injection,5.20 ± 0.59 % ID/g
same,Intestine uptake,[2]; 1 h post-injection,1.52 ± 0.21 % ID/g
same,Kidneys uptake,[2]; 1 h post-injection,31.1 ± 4.40 % ID/g
same,Lacrimal uptake,[2]; 1 h post-injection,1.82 ± 1.46 % ID/g
same,Liver uptake,[2]; 1 h post-injection,3.35 ± 1.08 % ID/g
same,Lungs uptake,[2]; 1 h post-injection,8.37 ± 1.10 % ID/g
same,Muscle uptake,[2]; 1 h post-injection,1.60 ± 0.19 % ID/g
same,Pancreas uptake,[2]; 1 h post-injection,2.02 ± 0.32 % ID/g
same,Salivary uptake,[2]; 1 h post-injection,3.87 ± 0.70 % ID/g
same,Seminal uptake,[2]; 1 h post-injection,1.19 ± 0.18 % ID/g
same,Spleen uptake,[2]; 1 h post-injection,3.05 ± 0.63 % ID/g
same,Stomach uptake,[2]; 1 h post-injection,0.62 ± 0.09 % ID/g
same,Tail uptake,[2]; 1 h post-injection,4.42 ± 0.76 % ID/g
same,Testes uptake,[2]; 1 h post-injection,2.54 ± 0.34 % ID/g
same,Thyroid uptake,[2]; 1 h post-injection,4.20 ± 0.53 % ID/g
same,Tumor uptake,[2]; 1 h post-injection,17.2 ± 1.67 % ID/g
same,Tumor:Blood ratio,[2]; 1 h post-injection,0.78 ± 0.04
same,Tumor:Muscle ratio,[2]; 1 h post-injection,10.8 ± 1.15
same,Tumor:kidney ratio,[2]; 1 h post-injection,0.56 ± 0.06
same,Urine uptake,[2]; 1 h post-injection,14.6 ± 10.9 % ID/g
same,Adrenal glands uptake,[2]; 3 h post-injection,6.45 ± 1.03 % ID/g
same,Blood uptake,[2]; 3 h post-injection,17.4 ± 1.15 % ID/g
same,Bone uptake,[2]; 3 h post-injection,2.11 ± 0.62 % ID/g
same,Brain uptake,[2]; 3 h post-injection,0.28 ± 0.06 % ID/g
same,Fat uptake,[2]; 3 h post-injection,2.12 ± 0.69 % ID/g
same,Heart uptake,[2]; 3 h post-injection,3.89 ± 0.40 % ID/g
same,Intestine uptake,[2]; 3 h post-injection,1.29 ± 0.18 % ID/g
same,Kidneys uptake,[2]; 3 h post-injection,35.6 ± 7.23 % ID/g
same,Lacrimal uptake,[2]; 3 h post-injection,4.14 ± 3.82 % ID/g
same,Liver uptake,[2]; 3 h post-injection,2.96 ± 0.56 % ID/g
same,Lungs uptake,[2]; 3 h post-injection,7.50 ± 1.05 % ID/g
same,Muscle uptake,[2]; 3 h post-injection,1.26 ± 0.18 % ID/g
same,Pancreas uptake,[2]; 3 h post-injection,1.74 ± 0.30 % ID/g
same,Salivary uptake,[2]; 3 h post-injection,3.57 ± 1.07 % ID/g
same,Seminal uptake,[2]; 3 h post-injection,1.07 ± 0.12 % ID/g
same,Spleen uptake,[2]; 3 h post-injection,3.07 ± 0.78 % ID/g
same,Stomach uptake,[2]; 3 h post-injection,0.59 ± 0.13 % ID/g
same,Tail uptake,[2]; 3 h post-injection,3.52 ± 0.65 % ID/g
same,Testes uptake,[2]; 3 h post-injection,2.63 ± 0.49 % ID/g
same,Thyroid uptake,[2]; 3 h post-injection,3.40 ± 0.56 % ID/g
same,Tumor uptake,[2]; 3 h post-injection,30.1 ± 3.12 % ID/g
same,Tumor:Blood ratio,[2]; 3 h post-injection,1.75 ± 0.28
same,Tumor:Muscle ratio,[2]; 3 h post-injection,24.5 ± 5.08
same,Tumor:kidney ratio,[2]; 3 h post-injection,0.88 ± 0.22
same,Urine uptake,[2]; 3 h post-injection,33.8 ± 22.3 % ID/g
